Data as given in patent US6011070A, “Slow-onset, long-lasting dopamine reuptake blockers” (priority 1997, dated 2000).
“Also recorded” adds a separate entry of the source. Where two headings read alike, the source gives them in different places.

Experiments:
[1] = test system: male Swiss-Webster mice; assay: Time course study of locomotor stimulation over 8 hours (Example 6); type: in vivo, Swiss-Webster mice (Hsd:ND4); settings: for ED50: Mus musculus, ip, read-out: ED50 (dose producing one half maximal stimulant activity); for Maximum effect (horizontal activity) / Dose of maximum effect: logistic peak fit
Description: A dose response study of induced locomotor stimulation was conducted according to the following procedure. The study was conducted using 16 Digiscan locomotor activity testing chambers (40.5×40.5×30.5 cm) housed in sets of two, within sound-attenuating chambers. A panel of infrared beams (16 beams) and corresponding photodetectors were located in the horizontal direction along the sides of each activity chamber. A 7.5-W incandescent light above each chamber provided dim illumination. Fans provided an 80-dB ambient noise level within the chamber. Separate groups of 8 non-habituated male Swiss-Webster mice (Hsd:ND4, aged 2-3 months) were injected via the intraperitoneal (IP) route with either vehicle (0.9% saline) or test compound (5, 10, 20 or 40 mg/kg), immediately prior to locomotor activity testing. In all studies, horizontal activity (interruption of photocell beams) was measured for 8 hours within 10 minute periods, beginning at […]) two hours after lights on). Testing was conducted with one mouse per activity chamber.
Stimulant effects of 10, 20 and 40 mg/kg occurred within 10 minutes following injection and lasted up to 3 hours. […] Using TableCurve 2D v2.03 software (Jandel Scientific), the mean average horizontal activity counts for this 30-min period were fit to a 3-parameter logistic peak function of log10 dose (with the constant set to 3172, the mean of the saline-treated group), and the maximum was estimated from the resulting curve (maximum=6059 counts/10 min at 18.3 mg/kg).
Separate groups of eight mice were injected with either vehicle (deionized water) or Compound 2 (1, 3, 10 pr 30 mg/kg) immediately prior to locomotor activity testing.
Stimulant effects occurred within 40 to 70 minutes following injection and lasted 4 to ≥7 hours. The time period 280-310 min was selected for analysis of dose-response data because this was the time period in which maximal stimulant effects first appeared as a function of dose. Using TableCurve 2D v2.03 software (Jandel Scientific), the mean average horizontal activity counts/10 min for this period were fit to a 3-parameter logistic peak function of log10 dose (with the constant set to 399, the mean of the vehicle-treated group), and the maximum effect estimated from the resulting curve (maximum=4581 counts/10 min at 12.9 mg/kg).

[2] = test system: male rhesus monkeys
[3] = test system: male Swiss-Webster mice; assay: Dose response study of induced locomotor stimulation (Digiscan), 1 h session (Example 2); type: in vivo, Swiss-Webster mice (Hsd:ND4); settings: IP; for Maximal Effect Relative to Cocaine / ED50: locomotor activity; for ED50: Mus musculus, 30-60 min period
Description: A dose response study of induced locomotor stimulation was conducted according to the following procedure. The study was conducted using a 16 or 32 Digiscan locomotor activity testing chambers (40.5×40.5×30.5 cm) housed in sets of two, within sound-attenuating chambers. A panel of infrared beams (16 beams) and corresponding photodetectors were located in the horizontal direction along the sides of each activity chamber. A 15-W incandescent light above each chamber provided dim illumination. Fans provided an 80-dB ambient noise level within the chamber. Separate groups of 8 non-habituated male Swiss-Webster mice (Hsd:ND4, aged 2-3 months) were injected via the intraperitoneal (IP) route with either vehicle (deionized water for Compounds 1-4, carboxymethylcellulose for Compound 6 or methyl cellulose for Compound 7)) or test compound (1, 2.5, 5, 10, 25 or 50 mg/kg for Compound 3; 1, 3, 10 and 30 mg/kg for Compounds 1, 2 and 4; 3, 10, 30 or 100 mg/kg for Compound 6; and 1, 3, 10, 30 and 100 mg/kg for Compound 7). Compounds 1-4 were injected immediately prior to locomotor activity testing. […] In all studies, horizontal activity (interruption of photocell beams) was measured for 1 hour within 10 minute periods. Testing was conducted with one mouse per activity chamber.
FIGS. 1, 3, 5 and 7 show average horizontal activity counts/10 minutes as a function of time, immediately following injection of Compound 1, Compound 2, Compound 3 and Compound 4, respectively. FIGS. 13 and 15 show average horizontal activity counts/10 minutes as a function of time, beginning twenty minutes following injection of Compound 6 and Compound 7, respectively. The period 30-60 minutes was selected for analysis of dose-response data. Using TableCurve 2D v2.03 software (Jandel Scientific), the mean average horizontal activity counts/10 minutes for this period were fit to a 3-parameter logistic peak function of log10 dose (with the constant set to 1989, the mean of the vehicle-treated group), and the maximum effect estimated from the resulting curve. […] FIGS. 2, 4, 6, 8, 14 and 16 show average horizontal activity counts/10 minutes over 30 minutes versus the amount administered of Compound 1, Compound 2, Compound 3, Compound 4, Compound 6 and Compound 7, respectively.

[4] = test system: cocaine-induced stimulation; assay: Interaction study: block of cocaine-induced locomotor stimulation (20 mg/kg cocaine IP) (Example 3); type: in vivo, Swiss-Webster mice; settings: for ED50: Mus musculus, ip, read-out: AD50 (dose attenuating cocaine-induced stimulation by 50%)
Description: This interaction study was conducted using 16 Digiscan locomotor activity testing chambers as described in Example 2. […] When testing the effects of Compounds 6 and 7, mice were placed in the Digiscan apparatus twenty minutes after the injection of the test compound or vehicle.
FIGS. 9, 17 and 19 show average horizontal activity counts for the different treatment groups as a function of time. […] FIGS. 10, 18 and 20 show average horizontal activity counts/10 min for different treatment groups as a function of dose.
A one-way analysis of variance conducted on log10 horizontal activity counts for the selected time period indicated a significant overall effect for the treatment groups; F(4,35)=[…] for Compound 2; F(5,42)=[…] for Compound 6; and F((5,42)=8.96 p<0.5). […] All ps<0.05 are denoted in FIGS. 10, 18 and 20 with an asterisk.

[5] = test system: squirrel monkeys; assay: Locomotor response in primates (Example 5); type: in vivo
[6] = read-out: ED50 (dose producing 1/2 maximal stimulant activity)

## COC(=O)[C@H]1[C@@H](OC(=O)c2ccccc2)C[C@@H]2CC[C@H]1N2C [Cocaine, reference compound]
[1]; 0.5 h
  ED50: 8.8 mg/kg
[1]; cocaine 10, 20 and 40 mg/kg IP
  Duration of stimulant effects: up to 3 hours
  Onset of stimulant effects following injection: ≤ 10 min
[1]; cocaine, 0-30 min, at 18.3 mg/kg
  Maximum effect (horizontal activity): 6059 counts/10 min
[1]; cocaine, 0-30 min
  Dose of maximum effect: 18.3 mg/kg
[1]; cocaine, doses from 10 to 40 mg/kg IP
  Stimulation of locomotor activity: time-dependent stimulation of locomotor activity
[1]; first minutes following 20 mg/kg cocaine
  Period of maximal stimulant effects: ≤ 30 min
[2]; 0.0032 mg/kg/inj cocaine, monkey 89B013
  Control rate of responding maintained by cocaine (drug component): 0.51 responses/sec
[2]; 0.0032 mg/kg/inj cocaine, monkey 89B056
  Control rate of responding maintained by cocaine (drug component): 0.79 responses/sec
[2]; 0.0032 mg/kg/inj cocaine, monkey J3A
  Control rate of responding maintained by cocaine (drug component): 0.57 responses/sec
[2]; 0.01 mg/kg/inj cocaine, monkey WH8
  Control rate of responding maintained by cocaine (drug component): 0.45 responses/sec
[2]; control conditions, monkey WH8
  Unit dose of cocaine maintaining maximal rates of self-administration: 0.01 mg/kg/inj
[2]; control conditions, monkeys 89B056 and J3A
  Unit dose of cocaine maintaining maximal rates of self-administration: 0.0032 mg/kg/inj
[2]; control conditions, no pretreatment
  Shape of dose-effect curve for cocaine self-administration: inverted-U shape

## CCCN(C)C1CC(c2ccc(Cl)c(Cl)c2)c2ccccc21 (centres unmarked) [Compound 2]
[3]
  Maximal Effect Relative to Cocaine: 0.51
[3]; [6]
  ED50: 5.65 mg/kg
[4]; 20 mg/kg cocaine IP
  Effect on cocaine-induced locomotor stimulation: antagonized the stimulant effect of cocaine; also recorded: block cocaine induced locomotor activity
[4]; 20 mg/kg cocaine IP, 0-30 min, p<0.05
  Dose with significant difference against the cocaine group (planned comparisons): 30 mg/kg
[4]
  ED50: 13.8 mg/kg
[1]; Compound 2
  Period of maximal stimulant effects: 280 to 310 min
[1]; Compound 2, 3 to 30 mg/kg
  Duration of stimulant effects: UP TO SEVEN
[1]; Compound 2, 280-310 min
  Maximal effect/cocaine maximal effect ratio (ME/CME): 1.4
  Dose of maximum effect: 12.9 mg/kg
[1]; Compound 2, 280-310 min, at 12.9 mg/kg
  Maximum effect (horizontal activity): 4581 counts/10 min
[1]; Compound 2, doses from 3 to 30 mg/kg
  Stimulation of locomotor activity: time-dependent stimulation of locomotor activity
[1]; 310 min, Compound 2, 280-310 min, 1 to 10 mg/kg ascending portion
  ED50: 3.3 mg/kg

## CCN(C)C1CC(c2ccc(Cl)c(Cl)c2)c2ccccc21 (centres unmarked) [Compound 3]
[3]
  Maximal Effect Relative to Cocaine: 0.93
[3]; [6]
  ED50: 10.8 mg/kg

## CCNC1CC(c2ccc(Cl)c(Cl)c2)c2ccccc21 (centres unmarked) [Compound 4]
[3]
  Maximal Effect Relative to Cocaine: 1.07
[3]; [6]
  ED50: 3.9 mg/kg

## CNC1CC(c2ccc(Cl)c(Cl)c2)c2ccccc21 (centres unmarked) [Compound 5]
[5]; 0.3 mg/kg Compound 5
  Duration of stimulated locomotor activity / increased response rate: two to four
[5]; 0.3 mg/kg Compound 5, Day 1, Monkey 1 (control 0.74)
  Number of Responses/Second: 1.29 responses/second
[5]; 0.3 mg/kg Compound 5, Day 1, Monkey 2 (control 0.72)
  Number of Responses/Second: 0.87 responses/second
[5]; 0.3 mg/kg Compound 5, Day 1, Monkey 3 (control 0.92)
  Number of Responses/Second: 1.11 responses/second
[5]; 0.3 mg/kg Compound 5, Day 2, Monkey 1 (control 0.74)
  Number of Responses/Second: 0.99 responses/second
[5]; 0.3 mg/kg Compound 5, Day 2, Monkey 2 (control 0.72)
  Number of Responses/Second: 1.18 responses/second
[5]; 0.3 mg/kg Compound 5, Day 2, Monkey 3 (control 0.92)
  Number of Responses/Second: 1.28 responses/second
[5]; 0.3 mg/kg Compound 5, Day 3, Monkey 1 (control 0.74)
  Number of Responses/Second: 0.75 responses/second
[5]; 0.3 mg/kg Compound 5, Day 3, Monkey 2 (control 0.72)
  Number of Responses/Second: 0.88 responses/second
[5]; 0.3 mg/kg Compound 5, Day 3, Monkey 3 (control 0.92)
  Number of Responses/Second: 1.13 responses/second
[5]; 0.3 mg/kg Compound 5, Day 4, Monkey 1 (control 0.74)
  Number of Responses/Second: 0.79 responses/second
[5]; 0.3 mg/kg Compound 5, Day 4, Monkey 2 (control 0.72)
  Number of Responses/Second: 0.74 responses/second
[5]; 0.3 mg/kg Compound 5, Day 4, Monkey 3 (control 0.92)
  Number of Responses/Second: 1.01 responses/second

## CC(C)(C)NC1CC(c2ccc(Cl)c(Cl)c2)c2ccccc21 (centres unmarked) [Compound 6]
[3]; [6]
  ED50: 506 mg/kg
[4]; 20 mg/kg cocaine IP
  Effect on cocaine-induced locomotor stimulation: antagonized the stimulant effect of cocaine
[4]
  ED50: 23.6 mg/kg

## CN(C1CC(c2ccc(Cl)c(Cl)c2)c2ccccc21)C(C)(C)C (centres unmarked) [Compound 7]
[3]
  Effect on locomotor activity: inhibited locomotor activity
[3]; read-out: ID50 (dose producing 1/2 maximal inhibitory activity)
  ED50: 184 mg/kg
[4]; 20 mg/kg cocaine IP
  Effect on cocaine-induced locomotor stimulation: antagonized the stimulant effect of cocaine; also recorded: block cocaine induced locomotor activity
[4]
  ED50: 42.5 mg/kg
